Experimental findings from patent US20090285919A1, “Rice Bran Extracts for Inflammation and Methods of Use Thereof” (priority 2008, published 2009) are described below.

For this test, the target named is T1, COX-2 (Homo sapiens, UniProt P35354).
T1 construct: purchased Cayman Chemicals (Ann Arbor, Mich.)
T1 sequence (P35354 18-604): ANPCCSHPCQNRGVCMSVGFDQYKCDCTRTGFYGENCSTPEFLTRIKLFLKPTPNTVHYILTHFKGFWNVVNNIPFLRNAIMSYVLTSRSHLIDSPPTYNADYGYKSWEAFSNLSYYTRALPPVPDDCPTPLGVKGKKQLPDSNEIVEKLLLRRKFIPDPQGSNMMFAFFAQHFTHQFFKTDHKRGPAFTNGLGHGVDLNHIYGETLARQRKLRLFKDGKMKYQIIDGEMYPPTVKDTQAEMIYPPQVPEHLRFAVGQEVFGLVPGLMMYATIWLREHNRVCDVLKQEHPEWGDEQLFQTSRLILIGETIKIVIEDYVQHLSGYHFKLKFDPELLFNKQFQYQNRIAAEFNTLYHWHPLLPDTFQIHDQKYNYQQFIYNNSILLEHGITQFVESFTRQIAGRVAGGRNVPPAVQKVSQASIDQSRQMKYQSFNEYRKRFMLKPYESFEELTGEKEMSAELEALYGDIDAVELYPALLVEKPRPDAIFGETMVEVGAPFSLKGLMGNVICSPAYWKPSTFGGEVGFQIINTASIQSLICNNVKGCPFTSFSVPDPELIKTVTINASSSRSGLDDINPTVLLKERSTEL
Briefly: COX-2 inhibition assay (Cayman Chemicals; prostaglandin production quantified by EIA). Format: biochemical. The note with it: in words; known compounds of SRB Extract 1. As for the experimental part:
All reagents and solutions were prepared according to the protocols established by Cayman Chemicals (Ann Arbor, Mich.) for the COX-1 and COX-2 inhibition assays. Two procedures were utilized to assess the COX-1/COX-2-specific and non-specific activities.
Prostaglandin Production Inhibition: Extracts were diluted in dimethylsulfoxide (DMSO), and then diluted in reaction buffer so that the final concentration of DMSO was 1%. Reactions were either run with COX-1 or COX-2 in the presence of Heme. Wells containing potential inhibitors (SRB extracts), non-inhibitor (100% activity) or background wells (heat inactivated enzyme) along with appropriate blanks were prepared. Solutions were placed in a 37° C. incubator for 15 minutes prior to running the reaction. Arachidonic acid was added and mixed and the reaction proceeded for 2 minutes. The reaction was stopped by addition of 1 M HCl to each well, then reducing the Prostaglandin H2 product to ProstaglandinG F2, which was quantified using EIA.
Quantification of Prostaglandin with EIA: The EIA assay plate was provided in the Cayman Chemicals screening kit. Aliquots, 50 μL, of the reaction products (PGF2) from prostaglandin production were added to their respective wells. […] The color development was quantified at 409 nm in a Tecan M200 microplate reader.

As for `CC1(C)C[C@@H](O)C[C@@]2(C)OC(=O)C=C12` [epiloliode, Epiloliolide], the COX-2 inhibition entry is “strong”. As to `CCCc1ccccn1` [conyrin], the COX-2 inhibition entry was “strong”.
